Results: BindingDB's records for doi:10.1021/jm970096g (National Cancer Institute-Frederick, 1998)

Key:
[1] = Cross Resistance (antiviral activity) with Y188C (Non nucleoside reverse transcriptase inhibitor) resistant HIV isolate from cytopathic cell killing assay
[2] = Cross Resistance (antiviral activity)of the compound with 4xAZT/Y181C (Non nucleoside reverse transcriptase inhibitor) resistant HIV isolate from cytopathic cell killing assay
[3] = Cross Resistance (antiviral activity) with V106A (Non nucleoside reverse transcriptase inhibitor) resistant HIV isolate from cytopathic cell killing assay
[4] = Cross Resistance (antiviral activity) with L100I (Non nucleoside reverse transcriptase inhibitor) resistant HIV isolate from cytopathic cell killing assay
[5] = Cross Resistance (antiviral activity) with K103N (Non nucleoside reverse transcriptase inhibitor) resistant HIV isolate from cytopathic cell killing assay
[6] = Cross Resistance (antiviral activity) with Y181C (Non nucleoside reverse transcriptase inhibitor) resistant HIV isolate from cytopathic cell killing assay
[7] = Cross Resistance (antiviral activity) with V179D (Non nucleoside reverse transcriptase inhibitor) resistant HIV isolate from cytopathic cell killing assay
[8] = Cross Resistance (antiviral activity) with 4xAZT (nucleoside reverse transcriptase inhibitor) resistant HIV isolate from cytopathic cell killing assay
[9] = Cross Resistance (antiviral activity) with NL4-3(WT) NNRTI (Non nucleoside reverse transcriptase inhibitor) resistant HIV isolate from cytopathic cell killing assay
[10] = Cross Resistance (antiviral activity) with L74V (nucleoside reverse transcriptase inhibitor) resistant HIV isolate from cytopathic cell killing assay
[11] = Cross Resistance (antiviral activity) with A98G (Non nucleoside reverse transcriptase inhibitor) resistant HIV isolate from cytopathic cell killing assay
[12] = Cross Resistance (antiviral activity) with 4xAZT/L100I (Non nucleoside reverse transcriptase inhibitor) resistant HIV isolate from cytopathic cell killing assay
[13] = Cross Resistance (antiviral activity) with K101E (Non nucleoside reverse transcriptase inhibitor) resistant HIV isolate from cytopathic cell killing assay
[14] = Cross Resistance (antiviral activity) with V108I (Non nucleoside reverse transcriptase inhibitor) resistant HIV isolate from cytopathic cell killing assay
[15] = Cross Resistance (antiviral activity) with 4xAZT/Y181C (Non nucleoside reverse transcriptase inhibitor) resistant HIV isolate from cytopathic cell killing assay
[16] = Cross Resistance (antiviral activity) with Y181C (Non nucleoside reverse transcriptase inhibitor) resistant HIV isolate from cytopathic cell killing assay; remark: listed apart in the source
[17] = Cross Resistance (antiviral activity) with V108I (Non nucleoside reverse transcriptase inhibitor) resistant HIV isolate v
[18] = Cross Resistance (antiviral activity) with K101E (Non nucleoside reverse transcriptase inhibitor) resistant HIV isolate from cytopathic cell killing assay; remark: listed apart in the source
[19] = Cross Resistance (antiviral activity) with A98G (Non nucleoside reverse transcriptase inhibitor) resistant HIV isolate from cytopathic cell killing assay; remark: listed apart in the source

Compound	EC50 [1]	EC50 [2]	EC50 [3]	EC50 [4]	EC50 [5]	EC50 [6]	EC50 [7]	EC50 [8]	EC50 [9]	EC50 [10]	EC50 [11]	EC50 [12]	EC50 [13]	EC50 [14]	EC50 [15]	EC50 [16]	EC50 [17]	EC50 [18]	EC50 [19]
CC1Cn2c(=O)[nH]c3cccc(c32)CN1 (stereo not drawn) [(S-(+))-8-Methyl-6,7,8,9-tetrahydro-2H-2,7,9a-triaza-benzo[cd]azulen-1-one]	> 17.4 µM	2 µM	12.5 µM	17.4 µM	17.4 µM	4.2 µM	6.2 µM	0.3 µM	0.3 µM	0.2 µM	11 µM	> 17.4 µM	17.4 µM	2.4 µM					
Fc1cccc(F)c1Cn1c(-c2c(F)cccc2F)nc2ccccc21	11.7 µM		> 20 µM		12.9 µM		2.3 µM	0.27 µM	1.85 µM	0.46 µM	4.75 µM	0.84 µM	> 20 µM	10.4 µM	> 20 µM	15.2 µM			
Cc1cccc2c1nc(-c1c(F)cccc1F)n2Cc1c(F)cccc1F	2.3 µM		20 µM	0.3 µM	8.1 µM	6 µM	0.5 µM	0.1 µM	0.5 µM	0.1 µM	1.4 µM	0.2 µM			3.5 µM		2.8 µM	16.7 µM	
Fc1cccc(F)c1C1SCc2nc3ccccc3n21 (centres undefined) [3-(2,6-difluorophenyl)-4-thia-2,7-diazatricyclo[6.4.0.0^{2,6}]dodeca-1(12),6,8,10-tetraene]			> 20 µM	12.2 µM	> 20 µM	16.3 µM	3.1 µM	1.5 µM	1.7 µM	0.7 µM		1.7 µM	> 20 µM	9.7 µM	14.5 µM				17.7 µM
